In US11440921B2, “Salts, crystal forms, and production methods thereof” (Sunovion Pharmaceuticals Inc., priority 2018, dated 2022):

Procedure: Approximately 200 mg of selected salts were weighed into clear glass HPLC vials. One milliliter of de-ionized water was added to each vial.

solubility in de-ionized water: freely soluble
USP Descriptor (de-ionized water): Freely Soluble
Final solution PH (de-ionized water, approx. 200 mg salt in 1 mL): 6.2
Solubility (mgA/mL) (de-ionized water, expressed in terms of free base): >107 mgA/mL
Substance: (S)-(4,5-dihydro-7H-thieno[2,3-c]pyran-7-yl)-N-methylmethanamine R-mandelate [(S)-TPMA R-mandelate]
